Target: T1, Ileal sodium/bile acid cotransporter (Homo sapiens, UniProt Q12908)
T1 sequence (Q12908 whole entry): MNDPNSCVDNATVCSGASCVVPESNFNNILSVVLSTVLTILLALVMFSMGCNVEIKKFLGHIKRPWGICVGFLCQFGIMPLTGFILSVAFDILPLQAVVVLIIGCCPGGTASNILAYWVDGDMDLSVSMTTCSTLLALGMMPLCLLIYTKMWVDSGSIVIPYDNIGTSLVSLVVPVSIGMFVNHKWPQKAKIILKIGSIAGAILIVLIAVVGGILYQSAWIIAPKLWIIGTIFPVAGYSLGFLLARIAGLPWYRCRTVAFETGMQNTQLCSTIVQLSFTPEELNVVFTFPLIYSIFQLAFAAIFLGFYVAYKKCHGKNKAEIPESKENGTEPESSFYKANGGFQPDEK
Test: Inhibition Assay
Details: 25 °C
Method: On the day of the uptake experiment, 10 mM HEPES was added to Hank's Balanced Salt Solution, and the pH was adjusted to 7.4 with TRIS (HBSSH). The assay buffer was prepared by adding 100 uM [3H]-taurocholate and 10 uM cold taurocholate to room temperature HBSSH. A separate washing buffer was prepared by adding 10 uM cold taurocholate to HBSSH (30 ml per assay plate) and placed on ice. Using 100% DMSO, 8 point, 3-fold dilution curves for each test compound was prepared starting at 200 uM. […] Drug plates were created by adding 3 uL of each concentration to a v-bottom 96-well plate then diluted 60-fold with 177 uL of assay buffer. Plates were removed from the incubator and allowed to cool to ambient temperature.

| Compound | IC50 |
| --- | --- |
| CCCC[C@]1(CC)CS(=O)(=O)c2cc(CCCC(N)=O)c(OC)cc2[C@@H](c2ccccc2)N1 [US9040518, 24] | 0.073 µM |
| CCCC[C@]1(CC)CS(=O)(=O)c2cc(CN3CCC[C@H]3C(=O)O)c(OC)cc2[C@@H](c2ccccc2)N1 [US9040518, 63] | 8.99 µM |

Reference: BindingDB's records for patent US9040518 (Glaxosmithkline, 2015)
